Here are results for two compounds from publication PMC4766710 (BMC Cancer, 2016).

Read-outs that look alike come from different tables or passages of the source.

For data set [1] the following is noted: in vivo, 75 mg.
The nature of the next data set: clinical. As to conditions: human, in vivo, 75 mg.
The next data set has as its system ABC. The following applies: monotherapy 100 mg bd, older formulation; 29 patients with ABC; cited from earlier work.
The subject of data set [2] is advanced biliary tract cancer. Briefly: ABC-04 phase Ib trial: objective response (RECIST v1.1), PFS, deaths. In kind it is in vivo, patients. As to conditions: 75 mg bd + CisGem. As to the method:
Patients were assessed prior to starting treatment and at regular intervals throughout treatment. […] All AEs occurring between the date of signing consent and 30 days after the last dose of any trial treatment were recorded. AEs were graded according to CTCAE v 4.03. Blood biochemistry and a full blood count with differential were carried out at the same time points as the physical examinations. […] In addition, prior to registration, an electrocardiogram and echocardiogram, and an ophthalmological examination were required. Disease status was assessed by computed tomography (CT) scan, with or without a liver magnetic resonance (MR) scan, prior to registration, after cycles 4 and 8 and then subsequently every 12 weeks until disease progression. Patients with measurable disease at baseline were assessed for objective response according to RECIST v1.1 [10]. For patients with non-measurable disease, objective response was not assessed and progressive disease was documented by the appearance of new lesions or by symptomatic deterioration.
Tumour responses were assessed according to RECIST version 1.1. The best response across all time points has been reported. For PFS and OS, the time to progression or death was measured from the date of registration. PFS and OS were estimated for the population by the Kaplan-Meier method.

The nature of data set [3]: ABC-04 phase Ib trial: dose limiting toxicity, adverse events, compliance. In kind it is in vivo, patients. The procedure: Four dose levels were included in the protocol for potential evaluation; 75 mg bd, 50 mg bd, 75 mg once daily (od) and 50 mg od. The first dose level evaluated was 75 mg bd. Patients were recruited in cohorts of three. The number of patients experiencing a DLT during the first cycle of treatment in each cohort was used to decide the dose level at which to recruit the next cohort. If no patients experienced a DLT, then that dose level was the recommended dose. If one patient experienced a DLT, the cohort was to be expanded to six patients. If > 2 patients experienced DLT, then subsequent patients were to be entered into the next lower dose level. […]
Patients were assessed prior to starting treatment and at regular intervals throughout treatment. […] All AEs occurring between the date of signing consent and 30 days after the last dose of any trial treatment were recorded. […] Disease status was assessed by computed tomography (CT) scan, with or without a liver magnetic resonance (MR) scan, prior to registration, after cycles 4 and 8 and then subsequently every 12 weeks until disease progression. Patients with measurable disease at baseline were assessed for objective response according to RECIST v1.1 [10]. For patients with non-measurable disease, objective response was not assessed and progressive disease was documented by the appearance of new lesions or by symptomatic deterioration. […]

The mark [4] stands for this setting: RECIST v1.1, listed as selumetinib.

`O=C(NOCCO)c1cc2nc[nH]c2c(F)c1Nc1ccc(Br)cc1Cl` [N-desmethyl selumetinib]: in data set [1] (human), the “AUC(0-t)” value stood at 347.26 ng·h/mL, the Cmax is reported as 77.16 ng/mL, the Tmax was found to be 2.00 h and the “decrease of AUC(0-t) in the presence of CisGem” value is on record as 40%. Further, in data set [1] (human), the “decrease of AUC(0-∞) in the presence of CisGem” value is 40% and the “decrease of Cmax in the presence of CisGem” value was 40%. In addition, the “AUC(0-∞)” value in data set [1] was found to be 452.88 ng·h/mL.
Take `Cn1cnc2c(F)c(Nc3ccc(Br)cc3Cl)c(C(=O)NOCCO)cc21` [Selumetinib]: in “clinical”, the AUC(0-inf) came to 5650 ng·h/mL and the Tmax was found to be 1.55 h. The response rate with ABC is recorded as 12%. Also, the Cmax in data set [1] (human) was found to be 1331.33 ng/mL. Moreover, in data set [2], the “Median time from documented best objective response until progression or death” value is on record as 5.9 months and the “median time from documented best objective response until progression or death, best response SD” value worked out at 3.1 months. For the same compound, the “median PFS” value in data set [2] (IQR 5.2 to 13.7) is reported as 6.4 months. Further, in data set [2] (Kaplan-Meier), the “PFS rate at 6 months” value was determined as 67% and the “PFS rate at 12 months” value stood at 33%. In addition, in data set [2] (RECIST v1.1), the “Best objective response: Complete response” value is on record as 1 N, the “Best objective response: Partial response” value is on record as 1 N and the “Best objective response: Stable disease” value was 6 N. For the same compound, in data set [2] (setting [4]), the “Best objective response: Partial response” value is 3 N and the “Best objective response: Stable disease” value worked out at 5 N. Also, the “Best objective response: Not evaluable” value in data set [2] (RECIST v1.1, total 13) was 5 N. Also, in data set [2] (at the time of the final analysis), the “patients who had died” value is recorded as 7 patients. The “deaths considered related to protocol treatment” value in data set [3] (75 mg bd + CisGem) was “None”. Further, the “recommended dose of selumetinib when combined with CisGem” value in data set [3] (dose de-escalation scheme, patients with ABC) was found to be 75 mg bd.

As a reminder, the AUC(0-t) is exposure summed from dosing to a finite time, without extrapolation to infinity. A high value points to more exposure. The term Cmax denotes the maximum level reached in the sampled fluid or tissue. By Tmax is commonly meant the time from dosing to the highest level. The AUC(0-inf) is total exposure, with the tail of the curve extrapolated. A lower AUC(0-inf) goes with low exposure.
